According to patent US20160199406A1, “NON-[…] IN COMBINATION WITH LIQUID […] FOR ORGAN PROTECTION” (priority 2013, published 2016):

Legend:
[1] = normobaric conditions, cited from earlier work
[2] = system: injured retinal ganglion cells; test: Annexin V-PeCy7 flow cytometric evaluation of early apoptosis in injured retinal ganglion cells after unilateral optic nerve axotomy; assay type: in vivo, B6.Cg-Tg(Thy1-YFP)16Jrs/J mice
Source text: B6.Cg-Tg(Thy1-YFP)16Jrs/J mice: Thy1-YFP mice were exposed to a vapor anesthetic agent (Isofluorane or Sevofluorane), in an anesthetic induction chamber. Animals were temperature probed, sterile eye lubricant was applied to prevent corneal damage, and an incision was made adjacent to the orbital ridge. The left orbit was exposed, and the lacrimal gland gently resected and covered with saline soaked gauze. […] Using microscissors, the dura was resected, and the optic nerve was transected approximately 0.5 mm from the posterior aspect of the eye bulb. Preservation of blood supply was evaluated through the dissecting microscope focused through a dilated pupil and a coverslip. The skin was closed with suture clips, analgesics (buprenorphine in saline) administered, and the mouse was transferred to an Argon (70%)/Oxygen (30%) perfused air chamber on a warming mat. […] Control mice were exposed to normal atmospheric conditions post-injury (See FIG. 1). Internal surgical controls were the uninjured retina of the contralateral eye.
Retinal Dissection, dissociation, and staining of cells: Mice were lightly anesthetized with Isofluorane and killed via cervical dislocation. Eyes were rapidly removed and placed in ice cold Hank's Balanced Salt Solution (HBSS). A single puncture to the conjunctiva was made, and corneas removed by microdissection. The ciliary epithelium and lens were then resected, and vitreous humor was visualized using triamcinolone acetonide solution to aid in removal by aspiration and microdissection. Free floating retinas were then transferred to fresh HBSS on ice, then transferred to 1 ml of enzyme solution containing Trypsin (MACS—Miltenyi Biotec). Following a 15 minute incubation at 37 degrees C. with periodic agitation, retinas were dissociated with fire polished pipettes and centrifuged. Pellets were washed in Annexin V binding buffer, and centrifuged. Pellets were the re-dissociated in DNAse-containing binding buffer, and stained for Annexin V-PeCy7 probe. Cells were washed, cell strained (40 um), and analyzed using a BD FacsAria III flow cytometer.
Flow cytometry and data analysis: Compensation and gating was established using unstained, YFP-only, Annexin V-only, and double-labeled cell samples. Dead cell assays (not shown) were also performed using propidium iodide and 7-AAD DNA intercalating dyes. Forward and side scatter gating were used to exclude debris, and YFP-positive cells were gated and used as the reference population. Quadrant analysis was used to identify and quantify Annexin V labeling within YFP expressing cells across groups. A within-subjects comparison was performed by comparing injured and uninjured retinas from the same animal. Difference scores (uninjured—injured Annexin V cell counts) were produced in order to normalize Annexin V background labeling in right eyes. All data are represented as means +/−1.0 standard error of the mean.

## [Ar] [argon]
[1]; high inspiratory concentrations
  anesthetic effects: does not provide anesthetic effects
[2]; 24 h post-injury, Argon (70%)/Oxygen (30%) chamber after surgery under Isofluorane or Sevofluorane, buprenorphine
  difference score (uninjured - injured Annexin V cell counts within YFP-positive population): positive difference score
[2]; 48 h post-injury, Argon (70%)/Oxygen (30%) chamber post-injury
  Annexin V binding in injured retinas: strong resistance to Annexin V binding
[2]; 72 hours post-injury
  neuroprotection: retained at 72 hours
[2]; overall conclusion from the data
  neuroprotective effect in combination with liquid anesthetics: provides a neuroprotective effect within the central nervous system
[2]; post-injury, Argon (70%)/Oxygen (30%)
  time of peak of neuroprotection effect size: around 48 h

## [Xe] [Xenon, xenon, reference compound]
[1]
  concentration with capacity to provide anesthesia: 71%
